Results as given in patent US20230310432A1 (JULIUS-MAXIMILIANS-UNIVERSITÄT WÜRZBURG, priority 2017, published 2023).
Where two headings read alike, the source gives them in different places.

Columns and labels:
[1] = system: CD8+ CD19 CAR/4-1BB T cells; experiment: Apoptosis assay (Annexin-V/7-AAD) after co-culture with K562/CD19; format: cell-based, human
Description: CD8^+ CD19 CAR-T cells were cultured in the presence of 50 U IL-2 either alone or with irradiated (80 Gy) K562/CD19 tumor cells at an E:T ratio of 4:1. […] After 24 hours of co-culture, co-cultures were labeled with anti-CD8 mAb, 7AAD and AnnexinV according to the manufacturer's instructions (BD Biosciences, Heidelberg, Germany), and analyzed by flow cytometry to evaluate the amount of apoptotic and dead T cells.
At the end of the co-culture, the inventors performed staining with Annexin-V and 7-AAD to determine the percentage of live CAR-T cells (Annexin-V-negative/7-AAD-negative), CAR-T cells undergoing apoptosis (Annexin-V-positive/7-AAD-negative), and dead CAR-T cells (Annexin-V-positive/7-AAD-positive).

[2] = system: NFAT inducible GFP reporter gene in CD19CAR/41BB T cells; experiment: NFAT-inducible GFP reporter expression in CAR-T cells in vivo; parameters: species or system NSG mice
Description: The inventors prepared CD8^+ and CD4^+ CD19CAR/41BB T cells, which the inventors transduced to co-express an NFAT inducible GFP reporter gene.

[3] = cited from earlier work
[4] = system: CD8+ T cells expressing a CD19 CAR with CD28 costimulatory domain; experiment: CFSE proliferation assay, co-culture with K562/CD19; format: cell-based, human; conditions: dasatinib ≥50 nM; 72 h
Description: (§1) Proliferation: T cells were labeled with 0.2 μM carboxyfluorescein succinimidyl ester (CFSE, Invitrogen), washed and plated in duplicate or triplicate wells with irradiated (80 Gy) stimulator cells at an E:T ratio of 4:1 (K562/ROR1, K562/CD19 or RCH-ACV). No exogenous cytokines were added to the culture medium. After a 72-hour incubation, cells were labeled with anti-CD3 mAb, and analyzed by flow cytometry to assess cell division of T cells.
(§2) CAR-T cells were labeled with CFSE and co-cultured with K562 that the inventors had transduced with either CD19 (for testing CD19 CAR-T cells) or ROR1 (for testing ROR1 CAR-T cells). Dasatinib was added to the assay medium at the beginning of the co-culture assay. Flow cytometric analyses were performed to determine the proliferation of T cells at the end of the co-culture assay.

[5] = system: CD8+ T cells expressing a ROR1 CAR with 4-1BB costimulatory domain; experiment: CFSE proliferation assay, co-culture with K562/ROR1; format: cell-based, human; conditions: dasatinib ≥50 nM; 72 h
Description: as §1, §2

[6] = system: CAR-T cells co-expressing the iCasp suicide gene; experiment: Elimination of iCasp+ T cells; format: cell-based, human; conditions: 100 nM dasatinib and dimerizer (dasatinib+/dimerizer+); 24 hours
Description: After 24 hours, cells were labeled with anti-CD3 mAB and analyzed by flow cytometry for the presence of iCasp+ T cells.
After 24 hours, cells were labeled with anti-CD3 mAB and analyzed by flow cytometry for the presence of iCasp^+ T cells.

[7] = system: CD4+ T cells expressing a SLAMF7 CAR with 4-1BB costimulatory domain; experiment: Cytokine ELISA, co-culture with K562/SLAMF7; format: cell-based, human; conditions: dasatinib ≥20 nM; 20 h
Description: (§3) Cytokine secretion: 5×10^4 T-cells were plated in duplicate or triplicate wells with target cells at an E:T ratio of 4:1 (K562/ROR1, K562/CD19, RCH-ACV), and IFN-γ and IL-2 were measured by ELISA, or cytokine panels were measured by multiplex cytokine immunoassay (Luminex) in supernatant removed after 20-h incubation. Specific cytokine production was calculated by subtracting the amount of cytokines released by unstimulated CAR-T cells from the amount of cytokines released after antigen-specific stimulation. The remaining cytokine secretion in % as shown in the diagrams is normalized to CAR-T cells in the absence of dasatinib-treatment (100%).
(§4) The inventors prepared SLAMF7-specific CD8^+ and CD4^+ CAR-T cell lines from n=2 healthy donors. In each of the T-cell lines, the inventors enriched CAR-expressing T cells to >90% purity using the EGFRt-transduction marker. […] CAR-T cells were co-cultured with K562 that the inventors had transduced with SLAMF7. Dasatinib was added to the assay medium at the beginning of the co-culture assay. ELISA was performed to detect IFN-γ and IL-2 in supernatant removed from the co-culture.

[8] = system: CD4+ T cells expressing a SLAMF7 CAR with CD28 costimulatory domain; experiment: Cytokine ELISA, co-culture with K562/SLAMF7; format: cell-based, human; conditions: dasatinib 20 nM; 20 h
Description: as §3, §4

[9] = system: CD8+ T cells expressing a SLAMF7 CAR with 4-1BB costimulation; experiment: Cytokine ELISA, co-culture with K562/SLAMF7; format: cell-based, human; conditions: 20 h
Description: as §3, §4

[10] = system: CD8+ T cells expressing a SLAMF7 CAR with CD28 costimulatory domain; experiment: Cytokine ELISA, co-culture with K562/SLAMF7; format: cell-based, human; conditions: 20 h
Description: as §3, §4

[11] = system: activated CD19 CAR/4-1BB-T cells; format: in vivo, NSG mice
[12] = dasatinib added at 2 hours after the start of the co-culture, 24 h
[13] = d+3, dasatinib not in effect any more

## Cc1nc(Nc2ncc(C(=O)Nc3c(C)cccc3Cl)s2)cc(N2CCN(CCO)CC2)n1 [dasatinib]
[1]; 100 nM dasatinib present, 24 h with K562/CD19, 8.4% in absence
  dead CAR-T cells (Annexin-V-positive/7-AAD-positive): 6.9%
[1]; 100 nM dasatinib present, 24 h with K562/CD19, 25.4% in absence
  alive CAR-T cells (Annexin-V-negative/7-AAD-negative): 47.4%
[1]; 100 nM dasatinib present, 24 h with K562/CD19, 66.2% in absence
  apoptotic CAR-T cells (Annexin-V-positive/7-AAD-negative): 45.7%
[1]; [12]
  alive CAR-T cells: 41.7%
  apoptotic CAR-T cells: 51.3%
  dead CAR-T cells: 7%
[2]; d+1, CAR/treated, 10687 CAR/untreated
  mean fluorescence intensity (MFI) for GFP in bone marrow CAR-T cells: 6967
[2]; d+1, treated vs untreated
  reduction of GFP MFI, bone marrow CAR-T cells: 35%
  reduction of GFP reporter gene expression, spleen CAR-T cells: 36%
[2]; [13]
  difference in GFP between previously treated and untreated CAR-T cells, bone marrow: 10%
  difference in GFP between previously treated and untreated CAR-T cells, spleen: 23%
[3]; 5 mg/kg i.p., after each injection, based on known pharmacokinetics [23]
  dasatinib concentration in mouse serum: > 50 nM
[3]; 5 mg/kg i.p., based on known pharmacokinetics [23]
  window after each injection with dasatinib at that serum concentration: ~6 h
[3]; 10 mg/kg i.p. every 6 hours, 6 doses, 3 hours prior to 33 hours after T-cell transfer
  total window with dasatinib present in mouse serum at that concentration: 36 h
[3]; 10 mg/kg i.p. every 6 hours, 6 doses, based on known pharmacokinetics [23]
  dasatinib concentration in mouse serum: at least 100 nM
[4]
  residual proliferation compared to non-dasatinib treated CAR-T cells: less than 7%
[5]
  residual proliferation compared to non-dasatinib treated CAR-T cells: less than 7%
[6]
  percentage of iCasp+ cells: 36%
[7]
  residual IFN-γ: less than 0.5%
[8]
  residual IFN-γ: less than 1.2%
[9]; dasatinib 20 nM
  residual specific IFN-γ production: less than 15%
[9]; dasatinib ≥40 nM
  residual specific IFN-γ production: less than 0.8%
[10]; dasatinib ≥20 nM
  residual specific IFN-γ production: less than 4%
[10]; dasatinib ≥40 nM
  residual specific IFN-γ production: less than 0.2%
[11]; day 12, CAR(ON/OFF/ON), 157 pg/ml in CAR(ON)
  serum level of IFN-γ: 24 pg/mL
[11]; day 14, dasatinib discontinued
  serum level of IFN-γ: 38 pg/mL
